Positions of bridges follow the written chain, without caps; N, C: chain ends. Non-standard residues stand in square brackets, D forms with d. Residues, ends and D or L forms follow the SMILES beside them. *: point of attachment. Biotin = O=C1N[C@H]2[C@H](CS[C@H]2CCCCC(=O)*)N1; Hyp = O=C(O)[C@@H]1C[C@@H](O)CN1
What follows are molecules tested on M2 macrophages (assay: Binding study of biotinylated peptides on polarized bone marrow-derived macrophages (streptavidin-FITC, flow cytometry)). Conditions: biotinylated peptide, on ice 20 min.
Type: cell-based, mouse
Procedure: All animal handling protocols were approved by the University of Washington Institutional Animal Care and Use Committee. Bone marrow harvest was performed following the previously reported protocol. Briefly, femur and tibia were excised from 6-8 week-old female c57bl6/027 mice. Cuts were made on the ends of each bone, and RPMI 1640 medium was used to flush out bone marrow cells via 18G needle. The cells were cultured on petri dishes in RPMI 1640 medium supplemented with 20% donor horse serum, 1% antibiotic-antimycotic (AbAm), and 20 ng/mL M-CSF. After 7 d of culture, macrophages were activated by replacing M-CSF with 25 ng/mL IFN-γ and 100 ng/mL LPS for M1 macrophage or 25 ng/mL IL-4 for M2 macrophage. The macrophages were activated for 2 d and then scraped off the petri dishes with cell lifter for binding studies.
Peptide solutions at different concentrations for binding study were prepared by dilutions from the stock solution (10 mg/mL in dH2O) with PBS containing 1% BSA (PBSA). M1 and M2 macrophages (50,000 cells/well) were seeded on a black 96-well plate and incubated in the peptide solutions on ice for 20 min. Unbound peptides were washed off with PBSA twice. The macrophages were subsequently incubated with streptavidin-FITC for 15 min on ice to probe for the bound peptides. Excess streptavidin-FITC was washed off with PBSA twice, and the macrophages were then resuspended in PBS for analysis by MACSQuant Flow Cytometer (Miltenyi Biotec, San Diego, Calif.). Propidium iodide was added to the samples before the data acquisition to discriminate dead cells. Flow cytometry data were analyzed with FlowJo Analysis Software (Tree Star, Ashland, Oreg.). Binding study of peptides post serum incubation was similarly performed with the following additions: The peptides (5 mM stock solution in H2O) were diluted in serum to a final concentration of 0.5 mM and incubated at 37° C. in an incubator. At each time point, an aliquot of the peptides was drawn and diluted in PBS to the final concentration for the binding study. The diluted aliquot was heated at 80° C. for 30 min to inactivate serum proteins, stored in a −20° C. freezer, and thawed for use in the binding study after aliquots at all time points were collected.
All animal handling protocols were approved by the University of Washington Institutional Animal Care and Use Committee. Bone marrow-derived cells were harvested from female c57bl/6 mice as previously described. In brief, femurs and tibias of the mice were excised and flushed with RPMI 1640 medium via an 18G needle. The cells were cultured on petri dishes containing RPMI 1640 medium supplemented with 20% donor horse serum, 1% antibioticantimycotic (AbAm), and 20 ng/mL M-CSF. After 7 d in culture, the medium was replaced with an activation medium whereby M-CSF was replaced with 25 ng/mL IFN-γ and 100 ng/mL LPS for M1 activation or with 25 ng/mL IL-4 for M2 activation. For M1 activation medium, AbAm was replaced with 1% penicillin-streptomycin (Pen-Strep). After 2 d of activation, the activated macrophages were scraped off the petri dishes for binding studies.
Biotinylated peptide stock solutions were prepared in H2O at 10 mg/mL concentration and quantified for the exact concentration using Quant*Tag Biotin quantification kit. The stock solutions were diluted in PBS with 1% BSA (PBSA) to different concentrations for binding studies. Activated macrophages were seeded on a black 96-well plate (50,000 cells/well) and incubated with the peptide solutions for 20 min on ice. The cells were washed twice with PBSA and subsequently incubated with streptavidin-FITC for 15 min on ice. After two additional washes, the cells were resuspended in PBS for analysis via MACSQuant Flow Cytometer (Miltenyi Biotec, San Diego, Calif.). Propidium iodide (PI) was added before running each sample to assess for cell viability. Data analysis was processed on FlowJo Analysis Software (Tree Star, Ashland, Oreg.). […]

| Molecule | binding activity to M2 macrophages (in words) |
| --- | --- |
| CC(=O)N[C@@H](Cc1ccc(O)cc1)C(=O)N[C@@H](CCC(=O)O)C(=O)N[C@@H](CCC(N)=O)C(=O)N[C@@H](CC(=O)O)C(=O)N1C[C@H](O)C[C@H]1C(=O)N[C@@H](Cc1c[nH]c2ccccc12)C(=O)NCC(=O)N[C@H](C(=O)N[C@@H](CCCNC(=N)N)C(=O)N[C@@H](Cc1ccc(O)cc1)C(=O)N[C@@H](Cc1c[nH]c2ccccc12)C(=O)N[C@H](Cc1ccc(O)cc1)C(=O)NCC(=O)NCC(=O)NCC(=O)N[C@@H](CO)C(=O)N[C@H](CCCCN)C(=O)N[C@H](CCCCN)C(=O)N[C@H](CCCCN)C(=O)N[C@@H](CCCCNC(=O)CCCC[C@@H]1SC[C@@H]2NC(=O)N[C@@H]21)C(N)=O)C(C)C [P5Hyp, Ac-YEQD(Hyp)WGVRYWyGGGSkkk] (Ac-YEQD[Hyp]WGVRYW[dY]GGGS[dK][dK][dK]K(Biotin)-NH2) | significantly ablated the binding activity |
| Biotin-Ahx-GRGRGRG(C-DFBP)G [reference compound] | binds very weakly to macrophages even at 100 μM |
| CC(C)[C@@H]1NC(=O)CNC(=O)[C@H](Cc2c[nH]c3ccccc23)NC(=O)[C@@H]2CCCN2C(=O)[C@H](CC(=O)O)NC(=O)CNC(=O)[C@@H](N)CSSC[C@@H](C(=O)N[C@H](CCCCN)C(=O)N[C@H](CCCCN)C(=O)N[C@H](CCCCN)C(=O)N[C@@H](CCCCNC(=O)CCCC[C@@H]2SC[C@@H]3NC(=O)N[C@@H]32)C(N)=O)NC(=O)CNC(=O)[C@H](Cc2c[nH]c3ccccc23)NC(=O)[C@H](Cc2ccc(O)cc2)NC(=O)[C@H](CCCNC(=N)N)NC1=O [cRYW, CGDPWGVRYWGCkkk] (H-CGDPWGVRYWGC[dK][dK][dK]K(Biotin)-NH2; disulfide 1-12) | significantly lower binding activity compared to cyclic M2pep(RY)Biotin |
| Cc1cn(C)nn1 [Triazole-cyclized M2pep(RY)Biotin] | bind less strongly |
| CC(=O)N[C@@H](CCCNC(=N)N)C(=O)N[C@@H](Cc1ccc(O)cc1)C(=O)N[C@@H](CCC(=O)O)C(=O)N[C@@H](CCC(N)=O)C(=O)N[C@@H](CC(=O)O)C(=O)N1CCC[C@H]1C(=O)N[C@@H](Cc1c[nH]c2ccccc12)C(=O)NCC(=O)N[C@H](C(=O)N[C@@H](CCCNC(=N)N)C(=O)N[C@@H](Cc1ccc(O)cc1)C(=O)N[C@@H](Cc1c[nH]c2ccccc12)C(=O)N[C@H](Cc1ccc(O)cc1)C(=O)NCC(=O)NCC(=O)NCC(=O)N[C@@H](CO)C(=O)N[C@H](CCCCN)C(=O)N[C@H](CCCCN)C(=O)N[C@H](CCCCN)C(=O)N[C@@H](CCCCNC(=O)CCCC[C@@H]1SC[C@@H]2NC(=O)N[C@@H]21)C(N)=O)C(C)C [R0, Ac-RYEQDPWGVRYWyGGGSkkk] (Ac-RYEQDPWGVRYW[dY]GGGS[dK][dK][dK]K(Biotin)-NH2) | did not improve binding activity any further |
| Fc1c(F)c(F)c(-c2c(F)c(F)c(F)c(F)c2F)c(F)c1F [DFBP, decafluorobiphenyl, reference compound] | negligible binding to M2 macrophages |
| CC(C)[C@@H]1NC(=O)CNC(=O)[C@H](Cc2c[nH]c3ccccc23)NC(=O)[C@@H]2CCCN2C(=O)[C@H](CC(=O)O)NC(=O)CNC(=O)[C@@H](N)CSSC[C@@H](C(=O)N[C@H](CCCCN)C(=O)N[C@H](CCCCN)C(=O)N[C@H](CCCCN)C(=O)N[C@@H](CCCCNC(=O)CCCC[C@@H]2SC[C@@H]3NC(=O)N[C@@H]32)C(N)=O)NC(=O)CNC(=O)[C@H](Cc2ccc(O)cc2)NC(=O)[C@H](Cc2c[nH]c3ccccc23)NC(=O)[C@H](Cc2ccc(O)cc2)NC(=O)[C@H](CCCNC(=N)N)NC1=O [cRYWY, CGDPWGVRYWYGCkkk] (H-CGDPWGVRYWYGC[dK][dK][dK]K(Biotin)-NH2; disulfide 1-13) | significantly lower binding activity compared to cyclic M2pep(RY)Biotin |

— patent publication US20170246311A1, “PEPTIDES FOR BINDING ALTERNATIVELY ACTIVATED MACROPHAGES” (University of Washington, priority 2016, published 2017)
